Data published in patent EP0550016A1, “Novel quinolone carboxylic acid derivatives and processes for preparing same” (KOREA RESEARCH INSTITUTE OF CHEMICAL TECHNOLOGY, priority 1991, dated 1993).
Converted amounts (≈) assume the structure as drawn. Where two headings read alike, the source gives them in different places.

Legend:
[1] = system: Staphylococcus aureus 208 E; assay: In vitro anti-bacterial activity test (MIC, two-fold dilution method), Table 2 strains; format: cell-based
[2] = system: Staphylococcus aureus 285; assay: In vitro anti-bacterial activity test (MIC, two-fold dilution method) against the standard strains; format: cell-based
[3] = system: Pseudomonas aeruginosa 9027; assay: as above; format: cell-based; settings: Table 1 strain 12: Pseudomonas aeruginosa 9027
[4] = system: Staphylococcus aureus 714 E; assay: In vitro anti-bacterial activity test (MIC, two-fold dilution method), Table 2 strains; format: cell-based
[5] = system: Staphylococcus aureus 705 E; assay: as above; format: cell-based
[6] = system: Streptococcus pyogenes 308 A; assay: In vitro anti-bacterial activity test (MIC, two-fold dilution method) against the standard strains; format: cell-based; settings: Table 1 strain 1: Streptococcus pyogenes 308 A
[7] = system: Streptococcus pyogenes 77 A; assay: as above; format: cell-based
Escherichia coli OTEM = assay: as above; format: cell-based; settings: Table 1 strain 10: Escherichia coli OTEM
[8] = system: Staphylococcus aureus 711 E; assay: In vitro anti-bacterial activity test (MIC, two-fold dilution method), Table 2 strains; format: cell-based
[9] = system: Staphylococcus aureus 503; assay: In vitro anti-bacterial activity test (MIC, two-fold dilution method) against the standard strains; format: cell-based
[10] = system: Staphylococcus aureus 708 E; assay: In vitro anti-bacterial activity test (MIC, two-fold dilution method), Table 2 strains; format: cell-based; settings: Table 2 strain 16: Staphylococcus aureus 708 E
P. mirabilis = assay: Preventive effect against the systemic infection; format: in vivo; settings: Proteus mirabilis, 168 h, NMRI mice, survival on day 7, read-out: ED₅₀
Procedure: (§1) 10 fold of the pathogen which leads to 100% lethality were injected intraperitoneally to male and female NMRI mice weighing 18 to 20g. Immediately and after 4 hours, the dose of test compounds which was determined by two-fold serial dilution method was administered orally or subcutaneously; and on day 7, the effectiveness was evaluated in terms of ED₅₀ calculated from the number of survived mice by the probit analysis.

S. aureus 17740 = assay: Preventive effect against the systemic infection; format: in vivo; settings: Staphylococcus aureus, 168 h, Oral Administration, NMRI mice, survival on day 7, read-out: ED₅₀
Procedure: as §1

[11] = system: Staphylococcus aureus 256 E; assay: In vitro anti-bacterial activity test (MIC, two-fold dilution method), Table 2 strains; format: cell-based; settings: Table 2 strain 4: Staphylococcus aureus 256 E
[12] = system: Pseudomonas aeruginosa 1592 E; assay: In vitro anti-bacterial activity test (MIC, two-fold dilution method) against the standard strains; format: cell-based; settings: Table 1 strain 13: Pseudomonas aeruginosa 1592 E
[13] = system: Staphylococcus aureus 121 E; assay: In vitro anti-bacterial activity test (MIC, two-fold dilution method), Table 2 strains; format: cell-based
[14] = system: Staphylococcus aureus 703 E; assay: as above; format: cell-based
[15] = system: Klebsiella aerogenes 1082 E; assay: In vitro anti-bacterial activity test (MIC, two-fold dilution method) against the standard strains; format: cell-based; settings: Table 1 strain 17: Klebsiella aerogenes 1082 E
[16] = system: Streptococcus faecium MD 8b; assay: as above; format: cell-based; settings: Enterococcus faecium, MD8B
[17] = system: Staphylococcus aureus 88 E; assay: In vitro anti-bacterial activity test (MIC, two-fold dilution method), Table 2 strains; format: cell-based; settings: Table 2 strain 1: Staphylococcus aureus 88 E
[18] = system: Staphylococcus aureus 706 E; assay: as above; format: cell-based
[19] = system: Staphylococcus aureus 701 E; assay: as above; format: cell-based
[20] = system: Staphylococcus aureus 725 E; assay: as above; format: cell-based
[21] = system: Staphylococcus aureus 693 E; assay: as above; format: cell-based
[22] = system: Staphylococcus aureus 694 E; assay: as above; format: cell-based
Escherichia coli 1507 E = assay: In vitro anti-bacterial activity test (MIC, two-fold dilution method) against the standard strains; format: cell-based; settings: Table 1 strain 11: Escherichia coli 1507 E
[23] = system: Staphylococcus aureus 695 E; assay: In vitro anti-bacterial activity test (MIC, two-fold dilution method), Table 2 strains; format: cell-based
[24] = system: Pseudomonas aeruginosa 1771; assay: In vitro anti-bacterial activity test (MIC, two-fold dilution method) against the standard strains; format: cell-based; settings: Table 1 strain 14: Pseudomonas aeruginosa 1771
Escherichia coli DC 0 [25] = assay: as above; format: cell-based; settings: DC0; Table 1 strain 7: Escherichia coli DC 0
[26] = system: Staphylococcus aureus SG 511; assay: as above; format: cell-based; settings: SG511; Table 1 strain 4: Staphylococcus aureus SG 511
Escherichia coli DC 0 [27] = assay: as above; format: cell-based; settings: DC0; Table 1 strain 8: Escherichia coli DC 0
[28] = system: Staphylococcus aureus 692 E; assay: In vitro anti-bacterial activity test (MIC, two-fold dilution method), Table 2 strains; format: cell-based; settings: Table 2 strain 6: Staphylococcus aureus 692 E
[29] = system: Staphylococcus aureus 707 E; assay: as above; format: cell-based
[30] = system: Staphylococcus aureus 690 E; assay: as above; format: cell-based
Escherichia coli DC 2 = assay: In vitro anti-bacterial activity test (MIC, two-fold dilution method) against the standard strains; format: cell-based; settings: DC2; Table 1 strain 9: Escherichia coli DC 2; read-out: MIC
[31] = system: Pseudomonas aeruginosa 1771 M; assay: as above; format: cell-based; settings: Table 1 strain 15: Pseudomonas aeruginosa 1771 M
[32] = system: Staphylococcus aureus 697 E; assay: In vitro anti-bacterial activity test (MIC, two-fold dilution method), Table 2 strains; format: cell-based; settings: Table 2 strain 10: Staphylococcus aureus 697 E
[33] = system: Enterobacter cloacae P 99; assay: In vitro anti-bacterial activity test (MIC, two-fold dilution method) against the standard strains; format: cell-based; settings: P99; Table 1 strain 19: Enterobacter cloacae P 99
[34] = system: Klebsiella aerogenes 1522 E; assay: as above; format: cell-based; settings: Table 1 strain 18: Klebsiella aerogenes 1522 E
Salmonella typhimurium = assay: as above; format: cell-based; settings: Salmonella enterica; Table 1 strain 16: Salmonella typhimurium
[35] = system: Enterobacter cloacae 1321 E; assay: as above; format: cell-based; settings: Table 1 strain 20: Enterobacter cloacae 1321 E

## O=C(O)c1cn(C2CC2)c2cc(N3CCNCC3)c(F)cc2c1=O [Ciprofloxacin, ciprofloxacin, reference compound]
[1]; Staphylococcus aureus, 208E
  MIC: 0.781 µg/mL (≈ 2.36 µM)
[2]; Staphylococcus aureus, 285
  MIC: 0.781 µg/mL (≈ 2.36 µM)
[3]
  MIC: 0.391 µg/mL (≈ 1.18 µM)
[4]; Staphylococcus aureus, 714E
  MIC: 0.781 µg/mL (≈ 2.36 µM)
[5]; Staphylococcus aureus, 705E
  MIC: 0.781 µg/mL (≈ 2.36 µM)
[6]
  MIC: 3.12 µg/mL (≈ 9.43 µM)
[7]; Streptococcus pyogenes, 77A
  MIC: 0.781 µg/mL (≈ 2.36 µM)
Escherichia coli OTEM
  MIC: 0.007 µg/mL (≈ 0.0211 µM)
[8]; Staphylococcus aureus, 711E
  MIC: 0.781 µg/mL (≈ 2.36 µM)
[9]; Staphylococcus aureus, 503
  MIC: 0.781 µg/mL (≈ 2.36 µM)
[10]
  MIC: 0.195 µg/mL (≈ 0.589 µM)
P. mirabilis; Oral Administration
  ED50: 0.82 mg/kg
P. mirabilis; sc, Subcutaneous Injection
  ED50: 0.16 mg/kg
S. aureus 17740
  ED50: > 200 mg/kg
[11]
  MIC: 1.56 µg/mL (≈ 4.72 µM)
[12]
  MIC: 0.391 µg/mL (≈ 1.18 µM)
[13]; Staphylococcus aureus, 121E
  MIC: 0.781 µg/mL (≈ 2.36 µM)
[14]; Staphylococcus aureus, 703E
  MIC: 0.781 µg/mL (≈ 2.36 µM)
[15]
  MIC: 0.007 µg/mL (≈ 0.0211 µM)
[16]
  MIC: 0.781 µg/mL (≈ 2.36 µM)
[17]
  MIC: 1.56 µg/mL (≈ 4.72 µM)
[18]; Staphylococcus aureus, 706E
  MIC: 0.781 µg/mL (≈ 2.36 µM)
[19]; Staphylococcus aureus, 701E
  MIC: 0.781 µg/mL (≈ 2.36 µM)
[20]; Staphylococcus aureus, 725E
  MIC: 0.781 µg/mL (≈ 2.36 µM)
[21]; Staphylococcus aureus, 693E
  MIC: 0.781 µg/mL (≈ 2.36 µM)
[22]; Staphylococcus aureus, 694E
  MIC: 0.781 µg/mL (≈ 2.36 µM)
Escherichia coli 1507 E
  MIC: 0.007 µg/mL (≈ 0.0211 µM)
[23]; Staphylococcus aureus, 695E
  MIC: 0.781 µg/mL (≈ 2.36 µM)
[24]
  MIC: 0.391 µg/mL (≈ 1.18 µM)
Escherichia coli DC 0 [25]
  MIC: 0.002 µg/mL (≈ 0.00604 µM)
[26]
  MIC: 0.195 µg/mL (≈ 0.589 µM)
Escherichia coli DC 0 [27]
  MIC: 0.391 µg/mL (≈ 1.18 µM)
[28]
  MIC: 0.391 µg/mL (≈ 1.18 µM)
[29]; Staphylococcus aureus, 707E
  MIC: 0.781 µg/mL (≈ 2.36 µM)
[30]; Staphylococcus aureus, 690E
  MIC: 0.781 µg/mL (≈ 2.36 µM)
Escherichia coli DC 2
  MIC: 0.195 µg/mL (≈ 0.589 µM)
[31]
  MIC: 0.098 µg/mL (≈ 0.296 µM)
[32]
  MIC: 0.391 µg/mL (≈ 1.18 µM)

## CNC1CC12CCN(c1c(F)cc3c(=O)c(C(=O)O)cn(C4CC4)c3c1F)C2 (centres unmarked) [Example 8, 7-(1-methylamino-5-azaspiro[2,4]heptane-5-yl)-1-cyclopropyl-6,8-difluoro-1,4-dihydro-4-oxo-quinoline-3-carboxylic acid]
[1]; Table 2 strain 3: Staphylococcus aureus 208 E, read-out: MIC
  MIC: 0.098 µg/mL (≈ 0.252 µM)
[2]; Table 1 strain 5: Staphylococcus aureus 285, read-out: MIC
  MIC: 0.049 µg/mL (≈ 0.126 µM)
[3]
  MIC: 1.56 µg/mL (≈ 4.01 µM)
[4]; Table 2 strain 18: Staphylococcus aureus 714 E, read-out: MIC
  MIC: 0.049 µg/mL (≈ 0.126 µM)
[5]; Table 2 strain 13: Staphylococcus aureus 705 E, read-out: MIC
  MIC: 0.195 µg/mL (≈ 0.501 µM)
[6]
  MIC: 0.391 µg/mL (≈ 1 µM)
[7]; Table 1 strain 2: Streptococcus pyogenes 77 A, read-out: MIC
  MIC: 0.195 µg/mL (≈ 0.501 µM)
Escherichia coli OTEM
  MIC: 0.049 µg/mL (≈ 0.126 µM)
[8]; Table 2 strain 17: Staphylococcus aureus 711 E, read-out: MIC
  MIC: 0.049 µg/mL (≈ 0.126 µM)
[9]; Table 1 strain 6: Staphylococcus aureus 503, read-out: MIC
  MIC: 0.049 µg/mL (≈ 0.126 µM)
[10]
  MIC: 0.049 µg/mL (≈ 0.126 µM)
[11]
  MIC: 0.195 µg/mL (≈ 0.501 µM)
[12]
  MIC: 1.56 µg/mL (≈ 4.01 µM)
[13]; Table 2 strain 2: Staphylococcus aureus 121 E, read-out: MIC
  MIC: 0.098 µg/mL (≈ 0.252 µM)
[14]; Table 2 strain 12: Staphylococcus aureus 703 E, read-out: MIC
  MIC: 0.195 µg/mL (≈ 0.501 µM)
[15]
  MIC: 0.004 µg/mL (≈ 0.0103 µM)
[16]; Table 1 strain 3: Streptococcus faecium MD 8b, read-out: MIC
  MIC: 0.195 µg/mL (≈ 0.501 µM)
[17]
  MIC: 0.098 µg/mL (≈ 0.252 µM)
[18]; Table 2 strain 14: Staphylococcus aureus 706 E, read-out: MIC
  MIC: 0.098 µg/mL (≈ 0.252 µM)
[19]; Table 2 strain 11: Staphylococcus aureus 701 E, read-out: MIC
  MIC: 0.195 µg/mL (≈ 0.501 µM)
[20]; Table 2 strain 19: Staphylococcus aureus 725 E, read-out: MIC
  MIC: 0.098 µg/mL (≈ 0.252 µM)
[21]; Table 2 strain 7: Staphylococcus aureus 693 E, read-out: MIC
  MIC: 0.049 µg/mL (≈ 0.126 µM)
[22]; Table 2 strain 8: Staphylococcus aureus 694 E, read-out: MIC
  MIC: 0.391 µg/mL (≈ 1 µM)
Escherichia coli 1507 E
  MIC: 0.049 µg/mL (≈ 0.126 µM)
[23]; Table 2 strain 9: Staphylococcus aureus 695 E, read-out: MIC
  MIC: 0.049 µg/mL (≈ 0.126 µM)
[33]
  MIC: 0.049 µg/mL (≈ 0.126 µM)
[24]
  MIC: 1.56 µg/mL (≈ 4.01 µM)
Escherichia coli DC 0 [25]
  MIC: 0.013 µg/mL (≈ 0.0334 µM)
[34]
  MIC: 0.098 µg/mL (≈ 0.252 µM)
[26]
  MIC: 0.049 µg/mL (≈ 0.126 µM)
Escherichia coli DC 0 [27]
  MIC: 0.391 µg/mL (≈ 1 µM)
Salmonella typhimurium
  MIC: 0.049 µg/mL (≈ 0.126 µM)
[28]
  MIC: 0.049 µg/mL (≈ 0.126 µM)
[29]; Table 2 strain 15: Staphylococcus aureus 707 E, read-out: MIC
  MIC: 0.195 µg/mL (≈ 0.501 µM)
[30]; Table 2 strain 5: Staphylococcus aureus 690 E, read-out: MIC
  MIC: 0.049 µg/mL (≈ 0.126 µM)
Escherichia coli DC 2
  MIC: 0.098 µg/mL (≈ 0.252 µM)
[31]
  MIC: 0.391 µg/mL (≈ 1 µM)
[35]
  MIC: 0.025 µg/mL (≈ 0.0642 µM)
[32]
  MIC: 0.049 µg/mL (≈ 0.126 µM)
